Source: ChEMBL document CHEMBL3612016, “1,4-Disubstituted aromatic piperazines with high 5-HT2A/D2 selectivity: Quantitative structure-selectivity investigations, docking, synthesis and biological evaluation” (Bioorg Med Chem, 2015)

What was measured:
[1] = molecular target: 5-hydroxytryptamine receptor 2A (Homo sapiens, UniProt P28223); assay: biochemical; format: cell-based, HEK293
Description: Displacement of [3H]ketanserin from human 5-HT2A receptor expressed in HEK293 cell membranes by radioligand competition binding assay

D(2) dopamine receptor [2] = molecular target: T1, D(2) dopamine receptor (Homo sapiens, UniProt P14416); assay: biochemical; format: cell-based, CHO
Description: Displacement of [3H]spiperone from human dopamine D2L receptor expressed in CHO cell membranes by radioligand competition binding assay

D(4) dopamine receptor = molecular target: T2, D(4) dopamine receptor (Homo sapiens, UniProt P21917); assay: biochemical; format: cell-based, CHO
T2 sequence (P21917 whole entry): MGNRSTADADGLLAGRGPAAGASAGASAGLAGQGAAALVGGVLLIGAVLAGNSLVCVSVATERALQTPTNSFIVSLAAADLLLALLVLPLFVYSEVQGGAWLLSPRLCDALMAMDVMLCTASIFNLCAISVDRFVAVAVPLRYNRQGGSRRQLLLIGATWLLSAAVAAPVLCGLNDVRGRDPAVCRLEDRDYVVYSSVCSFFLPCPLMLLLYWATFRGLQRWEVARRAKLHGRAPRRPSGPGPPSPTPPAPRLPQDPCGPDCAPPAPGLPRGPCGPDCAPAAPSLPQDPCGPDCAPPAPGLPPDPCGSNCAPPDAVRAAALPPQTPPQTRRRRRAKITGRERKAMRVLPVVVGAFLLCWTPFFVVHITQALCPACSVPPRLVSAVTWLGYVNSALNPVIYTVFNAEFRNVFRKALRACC
Description: Displacement of [3H]spiperone from human dopamine D4.4 receptor expressed in CHO cell membranes by radioligand competition binding assay

D(1A) dopamine receptor = D(1A) dopamine receptor (Homo sapiens, UniProt P21728); assay: biochemical; format: cell-based, CHO
Description: Displacement of [3H]SCH23990 from human dopamine D1 receptor expressed in CHO cell membranes by radioligand competition binding assay

D(2) dopamine receptor [3] = molecular target: T1, D(2) dopamine receptor; format: cell-based; conditions: hek293
Description: Activity at pro-link-tagged D2S-ARMS2PK2 (unknown origin) expressed in HEK293 cells by beta-arrestin-2 recruitment assay

D(2) dopamine receptor [4] = molecular target: T1, D(2) dopamine receptor; format: functional, cell-based, HEK293
D(2) dopamine receptor [5] = molecular target: T1, D(2) dopamine receptor; assay: biochemical; format: cell-based, CHO; remark: listed apart in the source
Description: Displacement of [3H]spiperone from human dopamine D2S receptor expressed in CHO cell membranes by radioligand competition binding assay

D(3) dopamine receptor = D(3) dopamine receptor (Homo sapiens, UniProt P35462); assay: biochemical; format: cell-based, CHO
Description: Displacement of [3H]spiperone from human dopamine D3 receptor expressed in CHO cell membranes by radioligand competition binding assay

D(2) dopamine receptor [6] = molecular target: T1, D(2) dopamine receptor
Description: Activity at dopamine D2S receptor (unknown origin) expressed in HEK293 cell membranes co-expressing Galpha protein subunit Galphai2 by [35S]GTPgammaS binding assay

Sequence of D(1A) dopamine receptor (P21728 whole entry): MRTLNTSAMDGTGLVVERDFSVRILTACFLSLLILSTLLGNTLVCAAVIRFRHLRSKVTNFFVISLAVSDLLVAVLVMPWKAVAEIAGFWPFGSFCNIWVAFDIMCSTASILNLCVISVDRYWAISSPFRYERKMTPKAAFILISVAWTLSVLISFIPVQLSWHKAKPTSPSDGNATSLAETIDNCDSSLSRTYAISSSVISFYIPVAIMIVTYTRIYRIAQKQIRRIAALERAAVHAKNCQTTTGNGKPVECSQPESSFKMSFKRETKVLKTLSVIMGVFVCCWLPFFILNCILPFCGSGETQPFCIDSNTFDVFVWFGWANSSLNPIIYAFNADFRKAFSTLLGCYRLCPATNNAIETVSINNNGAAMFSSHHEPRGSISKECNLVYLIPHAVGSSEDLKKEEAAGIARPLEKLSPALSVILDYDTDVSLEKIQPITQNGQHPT
Sequence of 5-hydroxytryptamine receptor 2A (P28223 whole entry): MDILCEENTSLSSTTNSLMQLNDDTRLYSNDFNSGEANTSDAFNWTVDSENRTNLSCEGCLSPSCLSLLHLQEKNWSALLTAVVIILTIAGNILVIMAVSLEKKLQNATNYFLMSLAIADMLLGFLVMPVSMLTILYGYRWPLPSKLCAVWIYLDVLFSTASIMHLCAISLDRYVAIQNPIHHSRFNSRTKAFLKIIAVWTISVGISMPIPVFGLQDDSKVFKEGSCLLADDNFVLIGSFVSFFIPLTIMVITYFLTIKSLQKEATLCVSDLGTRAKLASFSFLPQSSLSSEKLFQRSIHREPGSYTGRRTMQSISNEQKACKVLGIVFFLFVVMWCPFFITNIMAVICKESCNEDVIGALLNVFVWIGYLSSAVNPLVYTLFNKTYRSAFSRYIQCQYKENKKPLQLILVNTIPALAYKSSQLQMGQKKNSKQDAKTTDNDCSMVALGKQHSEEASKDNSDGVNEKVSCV
Sequence of D(3) dopamine receptor (P35462 whole entry): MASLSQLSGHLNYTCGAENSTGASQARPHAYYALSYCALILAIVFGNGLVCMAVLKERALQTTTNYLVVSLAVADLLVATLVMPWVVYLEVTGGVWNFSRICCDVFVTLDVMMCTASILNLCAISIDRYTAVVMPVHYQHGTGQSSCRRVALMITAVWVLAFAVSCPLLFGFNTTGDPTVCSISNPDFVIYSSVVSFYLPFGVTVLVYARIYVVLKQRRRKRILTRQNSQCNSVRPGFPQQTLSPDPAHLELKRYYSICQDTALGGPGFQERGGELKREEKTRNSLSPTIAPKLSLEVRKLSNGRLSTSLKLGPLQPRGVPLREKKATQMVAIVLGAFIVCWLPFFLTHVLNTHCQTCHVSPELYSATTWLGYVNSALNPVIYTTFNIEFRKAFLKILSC
T1 sequence (P14416 whole entry): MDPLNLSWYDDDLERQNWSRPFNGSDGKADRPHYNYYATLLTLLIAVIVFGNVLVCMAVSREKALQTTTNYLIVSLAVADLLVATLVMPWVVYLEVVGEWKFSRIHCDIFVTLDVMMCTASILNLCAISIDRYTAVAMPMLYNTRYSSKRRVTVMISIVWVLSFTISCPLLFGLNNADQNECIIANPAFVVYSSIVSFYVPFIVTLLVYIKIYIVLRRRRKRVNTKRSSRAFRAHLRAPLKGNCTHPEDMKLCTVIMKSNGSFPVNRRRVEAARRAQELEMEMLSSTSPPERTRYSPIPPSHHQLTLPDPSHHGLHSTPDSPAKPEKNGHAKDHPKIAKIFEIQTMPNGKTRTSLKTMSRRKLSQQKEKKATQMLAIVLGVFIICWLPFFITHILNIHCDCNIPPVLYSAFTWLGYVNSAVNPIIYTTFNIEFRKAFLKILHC

Structure (SMILES) | Ki [1] [nM] | Ki (D(2) dopamine receptor [2]) [nM] | Ki (D(4) dopamine receptor) [nM] | Ki (D(1A) dopamine receptor) [nM] | EC50 (D(2) dopamine receptor [3]) | EC50 (D(2) dopamine receptor [4]) [nM] | Ki (D(2) dopamine receptor [5]) [nM] | Ki (D(3) dopamine receptor) [nM] | EC50 (D(2) dopamine receptor [6]) [nM]
COc1ccccc1N1CCN(CCCCCNC(=O)c2cnn3ccccc23)CC1 | 130 | – | – | – | – | – | – | – | –
COc1ccccc1N1CCN(CCCCCNC(=O)c2cc3ccccn3n2)CC1 | 220 | – | – | – | – | – | – | – | –
COc1ccccc1N1CCN(CCNC(=O)c2cnn3ccccc23)CC1 | 580 | – | – | – | – | – | – | – | –
COc1ccccc1N1CCN(CCCCCNC(=O)c2nnn(Cc3ccccc3Br)c2C)CC1 | 41 | 0.58 | – | – | – | – | – | – | –
CCCc1c(C(=O)NCCCCN2CCN(c3ccccc3OC)CC2)nnn1Cc1ccc(OC)cc1 | 29 | 7.1 | – | – | – | – | – | – | –
CCCc1c(C(=O)NCCCCN2CCN(c3ccccc3OC)CC2)nnn1Cc1ccccc1 | 110 | 6.4 | – | – | – | – | – | – | –
COc1ccc(Cn2nnc(C(=O)NCCCCCN3CCN(c4ccccc4OC)CC3)c2C)cc1 | 93 | 2.7 | – | – | – | – | – | – | –
CCCc1c(C(=O)NCCCCCN2CCN(c3ccccc3OC)CC2)nnn1Cc1ccccc1Br | 62 | 0.91 | – | – | – | – | – | – | –
COc1ccccc1N1CCN(CCCCCNC(=O)c2nnn(Cc3ccccc3)c2C)CC1 | 140 | 2.5 | – | – | – | – | – | – | –
COc1ccccc1N1CCN(CCCCNC(=O)c2nnn(Cc3ccccc3)c2C)CC1 | 620 | 35 | – | – | – | – | – | – | –
COc1ccc(Cn2nnc(C(=O)NCCCCCN3CCN(c4cccc(Cl)c4Cl)CC3)c2C)cc1 | 3.2 | 1.5 | – | – | – | – | – | – | –
O=C(NCCCCN1CCN(c2cccc(Cl)c2Cl)CC1)c1cc2ccccc2[nH]1 | 31 | – | – | – | – | – | – | – | –
COc1ccccc1N1CCN(CCCNC(=O)c2cc3ccccn3n2)CC1 | 560 | – | – | – | – | – | – | – | –
COc1ccccc1N1CCN(CCCc2cn(-c3ccn4nccc4c3)nn2)CC1 | 84 | 140 | 37 | 1700 | Not Active | 977 | 81 | 77 | –
O=Cc1cnn2ccc(-n3cc(CCCN4CCN(c5cccc(Cl)c5Cl)CC4)nn3)cc12 | 6.9 | 6.7 | 130 | 210 | Not Active | 191 | 3.8 | 12 | 955
O=Cc1cnn2ccc(-n3cc(CCCCN4CCN(c5cccc(Cl)c5Cl)CC4)nn3)cc12 | 15 | 110 | 1400 | 1500 | Not Active | 692 | 51 | 4.4 | 1860
O=Cc1cnn2ccc(-n3cc(CCN4CCN(c5cccc(Cl)c5Cl)CC4)nn3)cc12 | 50 | 11 | 3000 | 160 | Not Active | 200 | 8 | 32 | 3550
COc1ccccc1N1CCN(CCc2cn(-c3ccn4ncc(C=O)c4c3)nn2)CC1 | 89 | 18 | 98 | 620 | Not Active | 550 | 9.4 | 8.5 | 4370
Clc1cccc(N2CCN(CCc3cn(-c4ccn5nccc5c4)nn3)CC2)c1Cl | 7.1 | 22 | 180 | 120 | Not Active | 479 | 10 | 2.2 | 1100
Clc1cccc(N2CCN(CCCc3cn(-c4ccn5nccc5c4)nn3)CC2)c1Cl | 5.3 | 130 | 42 | 110 | Not Active | 1120 | 54 | 8.5 | –
Clc1cccc(N2CCN(CCCCc3cn(-c4ccn5nccc5c4)nn3)CC2)c1Cl | 0.64 | 23 | 76 | 110 | Not Active | 741 | 7.3 | 0.31 | –
Cc1c(C(=O)NCCCCN2CCN(c3cccc(Cl)c3Cl)CC2)nnn1Cc1ccccc1 | 7.4 | 14 | – | – | – | – | – | – | –
COc1ccccc1N1CCN(CCCCNC(=O)c2nnn(Cc3ccccc3Br)c2C)CC1 | 150 | 17 | – | – | – | – | – | – | –
CCCc1c(C(=O)NCCCCN2CCN(c3ccccc3OC)CC2)nnn1Cc1ccccc1Br | 44 | 3 | – | – | – | – | – | – | –
CCCc1c(C(=O)NCCCCN2CCN(c3cccc(Cl)c3Cl)CC2)nnn1Cc1ccccc1 | 2.5 | 6.4 | – | – | – | – | – | – | –
COc1ccc(Cn2nnc(C(=O)NCCCCN3CCN(c4ccccc4OC)CC3)c2C)cc1 | 140 | – | – | – | – | – | – | – | –
